Experimental data: US20100144737A1, “METHODS FOR INHIBITING T HELPER CELL DIFFERENTIATION” (FibroGen, Inc., priority 2008, published 2010)

Assays:
[1] = test system: activated T cells (PMBCs); assay: IFN-γ and TNF-α levels ex vivo following T cell activation in vivo (peptidoglycan-polysaccharide polymer injection); parameters: species or system Lewis rats; settings: 40 mg/kg oral gavage, days 28-44; PMBCs isolated day 44, anti-CD3, 72 h, ELISA
Procedure: The effect of methods and compounds of the present invention on INF-γ and TNF-α expression following in vivo activation was examined as follows. In these experiments, in vivo T cell activation was first induced by eliciting an inflammatory reaction in rats by injection of peptidoglycan-polysaccharide polymers. An exemplary compound of the present invention was then administered to the animals. T cells were then isolated from the blood of the animals and analyzed ex vivo for IFN-γ and TNF-α secretion. Female Lewis rats (150-200 gm; Harlan, Indianapolis, Ind.) were injected intra-peritoneal with peptidoglycan-polysaccharide polymers (15 μg/gm body weight, Lee Laboratories, Grayson, Ga.). Animals were administered Compound A (40 mg/kg) via oral gavage on days 28, 30, 32, 35, 37, 39, 42, and 44 following peptidoglycan-polysaccharide polymer injection. Peripheral blood mononuclear cells (PMBCs) were isolated from the blood of the animals by Ficol gradient (BD Vacutainer CPT tubes) on day 44. Equal numbers of PMBCs (50,000 cells/well) were plated on culture dishes coated with anti-CD3 antibodies in RPMI-1640 media containing 10% serum, and the cells were cultured for 72 h. Supernatants from the cell cultures were tested for IFN-γ and TNF-α levels using commercially-available ELISA assays (R&D).

Naive T helper cells = assay: Secretion of pro-inflammatory cytokines (IFN-γ, TNF-α) from TCR-stimulated T helper cells, conditioned media; format: cell-based, human; settings: seven days
Procedure: The effect of methods and compounds of the present invention on T helper cell secretion of pro-inflammatory cytokines was evaluated as follows. Naive T helper cells (AllCells LLC, Emeryville, Calif.) obtained from human cord blood were stimulated (i.e., T cell receptor (TCR) stimulation) by seeding into 96-well culture dishes coated with 5 μg/ml anti-CD3 antibody (clone UCHT1, R&D Systems, Minneapolis, Minn.) (Tanaka et.al. (1989) J Immunol 142:2791-2795.), and 5 μg/ml anti-CD28 antibody (clone ANC28.1/D10, Ancell Corporation, Bayport, Minn.), and cultured at 37° C., 5% CO2 in RPMI-1640 (Mediatech Inc., Herndon, Va.) containing 1% FBS, 1 U/ml penicillin-1 μg/ml streptomycin (Invitrogen Corporation, Carlsbad, Calif.), and 50 U/ml IL-2 (Roche Diagnostics Corporation, Indianapolis, Ind.). At the time of seeding, cells were cultured with media alone or with media containing 2 ng/ml IL-12 (R&D Systems, Minneapolis, Minn.) (to stimulate differentiation of the T helper cells into Th1 cells) and 10 μg/ml anti-IL4 antibody (R&D Systems, Minneapolis, Minn.) (to block differentiation of the T helper cells into Th2 cells). Compound A or 1% DMSO (Veh) was added to the existing media and the cells were cultured for an additional seven days. The conditioned media was then collected from the cell cultures and analyzed for interferon-gamma (IFN-γ) and tumor necrosis factor-alpha (TNF-α) levels using MS2400 Human Tissue Culture Cytokine Detection Kits (MesoScale Technologies, Gaithersburg, Md.) according to the manufacturer's instructions. In another series of experiments, the effect of methods and compounds of the present invention on T helper cell secretion of pro-inflammatory cytokines was evaluated as follows. Naive T helper cells were stimulated substantially as described above with the following modification: cell cultures contained 100 U/ml penicillin-100 U/ml streptomycin. Various compounds of the present invention or 1% DMSO (Veh) was added to the existing media and the cells were cultured for an additional six days. Following stimulation with IL-12, conditioned media was then collected from the cell cultures and analyzed for interferon-gamma (IFN-γ) levels using MS2400 Human Tissue Culture Cytokine Detection Kits (MesoScale Technologies, Gaithersburg, Md.) according to the manufacturer's instructions.

[2] = TCR-stimulated T helper cells with 2 ng/ml IL-12 and anti-IL4 antibody, vs IL-12 and vehicle
[3] = TCR-stimulated T helper cells, without IL-12 addition, vs vehicle

## Cc1nc(C(=O)NCC(=O)O)c(O)c2ccc(Oc3ccccc3)cc12 [Compound A, [(4-Hydroxy-1-methyl-7-phenoxy-isoquinoline-3-carbonyl)-amino]-acetic acid]
[1]
  IFN-γ secretion from the activated T cells, measured ex vivo: effective at decreasing
  TNF-α secretion from the activated T cells, measured ex vivo: effective at decreasing
Naive T helper cells; [2]
  IL-12-induced increase in IFN-γ levels: inhibited the increase
  IL-12-induced increase in TNF-α levels: inhibited the increase
Naive T helper cells; [3]
  IFN-γ levels in the conditioned media: reduction
  TNF-α levels in the conditioned media: reduction
